Assay results as given in ChEMBL document CHEMBL3044966, “Photosynthesis limitations of grapevine after treatment with the fungicide fludioxonil” (J Agric Food Chem, 2008).

What was measured:
[1] = Inhibition of photosynthesis in Vitis vinifera cv. Pinot noir assessed as reduction in net photosynthetic rate at 1.2 mM measured 1 day post compound application; assay type: organism-based; settings: in vivo
[2] = system: Vitis vinifera; assay: Inhibition of photosynthesis in Vitis vinifera cv. Pinot noir assessed as light compensation point at 1.2 mM measured 7 days post compound application (reference value: 22.6 +/- 3.1 umol/mol); assay type: organism-based; settings: in vivo, 168 h, 1200 µM
[3] = system: Vitis vinifera; assay: Inhibition of photosynthesis in Vitis vinifera cv. Pinot noir assessed as increase in mitochondrial respiration in the light at 30 mM measured 7 days post compound application relative to untreated control; assay type: organism-based; settings: in vivo, 168 h, 30000 µM
[4] = system: Vitis vinifera; assay: Inhibition of photosynthesis in Vitis vinifera cv. Pinot noir assessed as dark respiration at 1.2 mM measured 7 days post compound application (reference value: 1.6 +/- 0.0 umol/m2/s); assay type: organism-based; settings: in vivo, 168 h, 1200 µM
[5] = system: photosystem 2; assay: Inhibition of photosynthesis in Vitis vinifera cv. Pinot noir assessed as reduction in relative quantum yield of photo system 2 at 30 mM measured 7 days post compound application relative to untreated control; assay type: organism-based; settings: in vivo
[6] = system: Vitis vinifera; assay: Inhibition of photosynthesis in Vitis vinifera cv. Pinot noir assessed as in vivo maximum rate of rubisco carboxylation at 30 mM measured 7 days post compound application (reference value: 42.8 +/- 3.2 umol/m2/s); assay type: organism-based; settings: 168 h, 30000 µM
[7] = system: Vitis vinifera; assay: Increase in […] CO2 level in Vitis vinifera cv. Pinot noir at 1.2 mM measured 7 days post compound application; assay type: ADME, organism-based; settings: in vivo, 168 h, 1200 µM
[8] = Inhibition of photosynthesis in Vitis vinifera cv. Pinot noir assessed as reduction in net photosynthetic rate at 6 mM measured 7 days post compound application; assay type: organism-based; settings: in vivo
[9] = system: Vitis vinifera; assay: Effect on total nonphotochemical quenching in Vitis vinifera cv. Pinot noir at 1.2 to 30 mM measured 7 days post compound application; assay type: ADME, organism-based; settings: in vivo, 168 h, 30000 µM
[10] = Inhibition of photosynthesis in Vitis vinifera cv. Pinot noir assessed as reduction in apparent quantum yield of CO2 fixation at 1.2 to 30 mM measured 7 days post compound application; assay type: organism-based; settings: in vivo
[11] = system: Vitis vinifera; assay: Inhibition of photosynthesis in Vitis vinifera cv. Pinot noir assessed as ratio of apparent quantum yield of photo system 2 to apparent quantum yield yield of CO2 fixation at 6 mM measured 7 days post compound application (reference value: 10 +/- 1.7 no unit); assay type: organism-based; settings: in vivo, 168 h, 6000 µM
[12] = system: Vitis vinifera; assay: Inhibition of photosynthesis in Vitis vinifera cv. Pinot noir assessed as CO2 compensation point at 6 mM measured 7 days post compound application (reference value: 74.8 +/- 12.7 umol/mol); assay type: organism-based; settings: in vivo, 168 h, 6000 µM
[13] = system: Vitis vinifera; assay: Inhibition of photosynthesis in Vitis vinifera cv. Pinot noir assessed as PPFD-saturated net CO2 assimilation rate at 1.2 mM measured 7 days post compound application (reference value: 8.9 +/- 1.5 umol/m2/s); assay type: organism-based; settings: in vivo, 168 h, 1200 µM
[14] = system: Vitis vinifera; assay: Effect on net photosynthetic rate in Vitis vinifera cv. Pinot noir at 1.2 to 30 mM measured 2 to 4 days post compound application; assay type: ADME, organism-based; settings: in vivo, 30000 µM
[15] = system: Vitis vinifera; assay: Inhibition of photosynthesis in Vitis vinifera cv. Pinot noir assessed as light compensation point at 30 mM measured 7 days post compound application (reference value: 22.6 +/- 3.1 umol/mol); assay type: organism-based; settings: in vivo, 168 h, 30000 µM
[16] = system: Vitis vinifera; assay: Inhibition of photosynthesis in Vitis vinifera cv. Pinot noir assessed as CO2 compensation point at 30 mM measured 7 days post compound application (reference value: 74.8 +/- 12.7 umol/mol); assay type: organism-based; settings: in vivo, 168 h, 30000 µM
[17] = system: Vitis vinifera; assay: Inhibition of photosynthesis in Vitis vinifera cv. Pinot noir assessed as PPFD-saturated net CO2 assimilation rate at 30 mM measured 7 days post compound application (reference value: 8.9 +/- 1.5 umol/m2/s); assay type: organism-based; settings: in vivo, 168 h, 30000 µM
[18] = Inhibition of photosynthesis in Vitis vinifera cv. Pinot noir assessed as reduction in dark respiration at 1.2 mM measured 7 days post compound application; assay type: organism-based; settings: in vivo
[19] = system: Vitis vinifera; assay: Inhibition of photosynthesis in Vitis vinifera cv. Pinot noir assessed as apparent quantum yield of CO2 fixation at 30 mM measured 7 days post compound application (reference value: 0.07 +/- 0.01 no unit) umol/m2/s); assay type: organism-based; settings: in vivo, 168 h, 30000 µM
[20] = system: Vitis vinifera; assay: Inhibition of photosynthesis in Vitis vinifera cv. Pinot noir assessed as mitochondrial respiration in the light at 30 mM measured 7 days post compound application (reference value: 3.2 +/- 0.5 umol/m2/s); assay type: organism-based; settings: in vivo, 168 h, 30000 µM
[21] = system: Vitis vinifera; assay: Inhibition of photosynthesis in Vitis vinifera cv. Pinot noir assessed as reduction in net photosynthetic rate at 6 mM measured 1 day post compound application; assay type: organism-based; settings: in vivo, 24 h, 6000 µM
[22] = system: Vitis vinifera; assay: Inhibition of photosynthesis in Vitis vinifera cv. Pinot noir assessed as dark respiration at 6 mM measured 7 days post compound application (reference value: 1.6 +/- 0.0 umol/m2/s); assay type: organism-based; settings: in vivo, 168 h, 6000 µM
[23] = system: Vitis vinifera; assay: Inhibition of photosynthesis in Vitis vinifera cv. Pinot noir assessed as increase in CO2 compensation point at 30 mM measured 7 days post compound application relative to untreated control; assay type: organism-based; settings: in vivo, 168 h, 30000 µM
[24] = system: Vitis vinifera; assay: Inhibition of photosynthesis in Vitis vinifera cv. Pinot noir assessed as apparent quantum yield of CO2 fixation at 6 mM measured 7 days post compound application (reference value: 0.07 +/- 0.01 no unit) umol/m2/s); assay type: organism-based; settings: in vivo, 168 h, 6000 µM
[25] = system: Vitis vinifera; assay: Effect on stomatal conductance in Vitis vinifera cv. Pinot noir at 1.2 to 30 mM measured 7 days post compound application; assay type: ADME, organism-based; settings: in vivo, 168 h, 30000 µM
[26] = system: Vitis vinifera; assay: Effect on stomatal conductance in Vitis vinifera cv. Pinot noir at 1.2 to 30 mM measured 1 day post compound application; assay type: ADME, organism-based; settings: in vivo, 24 h, 30000 µM
[27] = system: Vitis vinifera; assay: Effect on maximum efficiency of PSII photochemistry after dark-adaptation in Vitis vinifera cv. Pinot noir at 1.2 to 30 mM measured 7 days post compound application; assay type: ADME, organism-based; settings: in vivo, 168 h, 30000 µM

**Q.** Which inhibition at 24 h, 1200 µM [1] does the source give for `N#Cc1c[nH]cc1-c1cccc2c1OC(F)(F)O2` [FLUDIOXONIL] here?
**A.** 30%

**Q.** What about the Activity [2] of the same compound?
**A.** 19.8 umol/mol

**Q.** And the “fold change (FC)” value [3]?
**A.** 3.5

**Q.** And the Activity [4]?
**A.** 0.8 micromol/m2/s

**Q.** And the inhibition at 168 h, 30000 µM [5]?
**A.** 10%

**Q.** And the Activity [6]?
**A.** 46.7 micromol/m2/s

**Q.** And the Activity [7]?
**A.** 13%

**Q.** What about the inhibition at 168 h, 6000 µM [8] of the same compound?
**A.** 65%

**Q.** And the Activity [9]?
**A.** Non-toxic

**Q.** What about the inhibition at 168 h, up to 30000 µM [10] of the same compound?
**A.** 30%

**Q.** What about the Ratio [11] of the same compound?
**A.** 16.3

**Q.** And the Activity [12]?
**A.** 82.2 umol/mol

**Q.** And the Activity [13]?
**A.** 7.7 micromol/m2/s

**Q.** What about the Activity [14] of the same compound?
**A.** Non-toxic

**Q.** What about the Activity [15] of the same compound?
**A.** 37 umol/mol

**Q.** What about the Activity [16] of the same compound?
**A.** 267 umol/mol

**Q.** And the Activity [17]?
**A.** 9.4 micromol/m2/s

**Q.** What about the inhibition at 168 h, 1200 µM [18] of the same compound?
**A.** 30%

**Q.** And the Activity [19]?
**A.** 0.04

**Q.** What about the Activity [20] of the same compound?
**A.** 12.6 micromol/m2/s

**Q.** What about the Activity [21] of the same compound?
**A.** Toxic

**Q.** What about the Activity [22] of the same compound?
**A.** 1.2 micromol/m2/s

**Q.** What about the “fold change (FC)” value [23] of the same compound?
**A.** 3.3

**Q.** What about the Activity [24] of the same compound?
**A.** 0.04

**Q.** And the Activity [25]?
**A.** Non-toxic

**Q.** What about the Activity [26] of the same compound?
**A.** Non-toxic

**Q.** What about the Activity [27] of the same compound?
**A.** Non-toxic
